Source: patent US8263605B2, “Modulators of muscarinic receptors” (Vertex Pharmaceutical Incorporated, priority 2006, dated 2012)

Legend:
M1 muscarinic receptor = target: T1, M1 muscarinic receptor (Homo sapiens, UniProt P11229); test: Functional mobilization of intracellular calcium (FLIPR), M1-CHO cells; type: cell-based; conditions: for Emax: 100% efficacy is the maximum response obtained with the Carbachol control; for M1 Activity: CHO cells expressing M1, calcium mobilization
T1 construct: expressed in transfected cells; host or cells: CHO (M1-CHO)
T1 sequence (P11229 1-460): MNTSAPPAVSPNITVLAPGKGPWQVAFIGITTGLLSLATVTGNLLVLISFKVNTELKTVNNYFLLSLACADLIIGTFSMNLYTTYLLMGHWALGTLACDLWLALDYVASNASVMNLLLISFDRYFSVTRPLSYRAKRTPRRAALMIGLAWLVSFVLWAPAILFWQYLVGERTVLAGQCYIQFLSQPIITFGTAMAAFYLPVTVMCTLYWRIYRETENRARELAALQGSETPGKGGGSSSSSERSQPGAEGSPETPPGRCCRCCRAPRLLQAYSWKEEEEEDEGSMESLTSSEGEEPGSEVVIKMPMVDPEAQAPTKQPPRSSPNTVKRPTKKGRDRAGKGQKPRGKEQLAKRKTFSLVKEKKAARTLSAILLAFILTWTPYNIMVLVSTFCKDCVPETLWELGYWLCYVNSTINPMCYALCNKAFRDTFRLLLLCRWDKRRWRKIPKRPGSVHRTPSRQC
Outline: (§1)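 Recombinant CHO cells loaded with Fluo-3 AM or Calcium 3 dye; fluorescence recorded 60 s on FLIPR in pH 7.4 buffer with 1 mM probenecid, 0.5% DMSO. Agonist mode: compound alone; antagonist mode: 15 min preincubation (or co-application) then carbachol at EC80. Efficacy relative to maximal carbachol response.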

M4 muscarinic receptor = target: T2, M4 muscarinic receptor (Homo sapiens, UniProt P08173); test: Functional mobilization of intracellular calcium (FLIPR), M4-CHO cells; type: cell-based; conditions: for Emax: 100% efficacy is the maximum response obtained with the Carbachol control; for M4 Activity: CHO cells expressing M4, calcium mobilization
T2 construct: expressed in transfected cells; host or cells: CHO (M4-CHO)
T2 sequence (P08173 1-479): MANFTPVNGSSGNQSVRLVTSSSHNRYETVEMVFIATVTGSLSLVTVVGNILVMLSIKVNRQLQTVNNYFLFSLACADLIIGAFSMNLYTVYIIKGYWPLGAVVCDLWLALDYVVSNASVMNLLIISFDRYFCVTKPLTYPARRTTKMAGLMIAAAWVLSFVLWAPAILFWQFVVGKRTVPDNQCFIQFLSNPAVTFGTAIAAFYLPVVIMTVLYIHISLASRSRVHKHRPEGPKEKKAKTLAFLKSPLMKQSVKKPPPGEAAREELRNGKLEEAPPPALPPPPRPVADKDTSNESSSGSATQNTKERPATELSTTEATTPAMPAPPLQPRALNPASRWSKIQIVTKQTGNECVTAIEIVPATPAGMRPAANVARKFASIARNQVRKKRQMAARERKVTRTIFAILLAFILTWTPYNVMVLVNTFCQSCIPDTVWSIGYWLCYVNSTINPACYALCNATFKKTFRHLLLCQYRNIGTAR
Outline: as §1

Structure (SMILES) | Emax (M1 muscarinic receptor) [%] | M1 Activity (M1 muscarinic receptor) | Emax (M4 muscarinic receptor) [%] | M4 Activity (M4 muscarinic receptor)
CN(C)C(=O)N1CC2(CCN(C[C@H]3CCN(c4cnccn4)C3)CC2)c2ccccc21 [compound 108] | 25 to 100 | +++ (activity was measured to be less than 2.0 μM) | > 100 | +++ (activity was measured to be less than 2.0 μM)
CN(C)C(=O)N1CC2(CCN(C[C@@H]3CCN(c4cnccn4)C3)CC2)c2ccccc21 [compound 109] | 25 to 100 | +++ (activity was measured to be less than 2.0 μM) | > 100 | +++ (activity was measured to be less than 2.0 μM)
CN(C)C(=O)N1CC2(CCN(C[C@@H]3CCN(C(=O)OC4CCOC4)C3)CC2)c2ccccc21 (some centres unmarked) [compound 110] | < 25 | ++ (activity was measured to be from 2.0 μM to 10.0 μM) | < 25 | ++ (activity was measured to be from 2.0 μM to 10.0 μM)
CN(C)C(=O)N1CC2(CCN(C[C@H]3CCN(C(=O)OC4CCOC4)C3)CC2)c2ccccc21 (some centres unmarked) [compound 111] | < 25 | ++ (activity was measured to be from 2.0 μM to 10.0 μM) | < 25 | ++ (activity was measured to be from 2.0 μM to 10.0 μM)
CN(C)C(=O)N1CC2(CCN(C3CCC(c4ncns4)CC3)CC2)c2ccccc21 (centres unmarked) [compound 112] | < 25 | ++ (activity was measured to be from 2.0 μM to 10.0 μM) | < 25 | + (activity was measured to be greater than 10.0 μM)
CN(C)C(=O)N1CC2(CCN(C3CCN(c4cncc(-c5ccccc5O)n4)CC3)CC2)c2ccccc21 [compound 113] | 25 to 100 | +++ (activity was measured to be less than 2.0 μM) | < 25 | + (activity was measured to be greater than 10.0 μM)
C=Cc1cncc(N2CCC(N3CCC4(CC3)CN(C(=O)N(C)C)c3ccccc34)CC2)n1 [compound 114] | < 25 | + (activity was measured to be greater than 10.0 μM) | 25 to 100 | +++ (activity was measured to be less than 2.0 μM)
Cc1nsc(N2CCC(C)(N3CCC4(CC3)CN(C(=O)N(C)C)c3ccccc34)CC2)n1 [compound 115] | < 25 | + (activity was measured to be greater than 10.0 μM) | < 25 | +++ (activity was measured to be less than 2.0 μM)
Cc1cnc(N2CCC(N3CCC4(CC3)CN(C(=O)N(C)C)c3ccccc34)CC2)s1 [compound 116] | < 25 | + (activity was measured to be greater than 10.0 μM) | < 25 | + (activity was measured to be greater than 10.0 μM)
CN(C)C(=O)N1CC2(CCN(C3CCN(c4nc5ccccc5s4)CC3)CC2)c2ccccc21 [compound 117] | < 25 | + (activity was measured to be greater than 10.0 μM) | < 25 | ++ (activity was measured to be from 2.0 μM to 10.0 μM)
CN(C)C(=O)N1CC2(CCN(C3CCN(c4nc5ccccc5o4)CC3)CC2)c2ccccc21 [compound 118] | 25 to 100 | ++ (activity was measured to be from 2.0 μM to 10.0 μM) | < 25 | ++ (activity was measured to be from 2.0 μM to 10.0 μM)
